Measured values taken from article PMC10981727, “Design, synthesis and bioactivity study on oxygen-heterocyclic-based pyran analogues as effective P-glycoprotein-mediated multidrug resistance in MCF-7/ADR cell” (Scientific Reports, 2024).

Assays:
SKOV-3 = test: MTT viability assay, SKOV-3; assay type: cell-based; details: for IC50: MTT, 24 h incubation, mean ± standard error; for times more potency than Doxorubicin, SKOV-3 / times more potency than Vinblastine, SKOV-3: ratio of IC50 values
Description: (§1) Using concentrations ranging from 0 to 100 μM against PC-3, SKOV-3, and HeLa cancerogenic cell lines, target compounds 4a–l were assessed for their anticancer activities[53] and compared with the commercially available Vinblastine and Doxorubicin. […] The compounds with the greatest cytotoxic activity against the cancerous cell lines PC-3, SKOV-3, and HeLa were 4a–c, 4g, and 4h. […] We selected the cytotoxic active compounds 4a–c, 4g, and 4h to be evaluated against MCF-7/ADR cancerogenic and HFL-1 and WI-38 non-cancerogenic cell lines (Figs. 7, 8 and Table 1).
(§2) The tumor cell lines (PC-3, SKOV-3, and HeLa), resistant cell strains (MCF-7/ADR) and the normal cell lines, (HFL-1, WI-38) were obtained from the American Type Culture Collection (ATCC, Rockville, MD, USA).
(§3) The tumor cell lines were suspended in medium at concentration 5 × 10^4 cells well^−1 in Corning® 96-well tissue culture plates and then incubated for 24 h. The tested compounds with concentrations ranging from 0 to 100 μM were then added into 96-well plates (six replicates) to achieve six different concentrations for each compound. Six vehicle controls with media or 0.5% DMSO were run for each 96 well plate as a control. After incubating for 24 h, the numbers of viable cells were determined by the MTT test[53]. Briefly, the media was removed from the 96 well plates and replaced with 100 μl of fresh culture RPMI 1640 medium without phenol red then 10 μl of the 12 mM MTT stock solution (5 mg of MTT in 1 ml of PBS) to each well including the untreated controls. The 96-well plates were then incubated at 37 °C and 5% CO2 for 4 h. An 85-μl aliquot of the media was removed from the wells, and 50 μl of DMSO was added to each well and mixed thoroughly with the pipette and incubated at 37 °C for 10 min. Then, the optical density was measured at 590 nm with the microplate reader (Sunrise, TECAN, Inc, USA) to determine the number of viable cells and the percentage of viability was calculated as […] where ODt is the mean optical density of wells treated with the tested sample and ODc is the mean optical density of untreated cells. The relation between surviving cells and drug concentration is plotted to get the survival curve of each tumor cell line after treatment with the specified compound. The 50% inhibitory concentration (IC50), the concentration required to cause toxic effects in 50% of intact cells, was estimated from graphic plots of the dose response curve for each concentration.

PC-3 = test: MTT viability assay, PC-3; assay type: cell-based; details: for IC50: MTT, 24 h incubation, mean ± standard error
Description: as §1, §2, §3

HeLa = test: MTT viability assay, HeLa; assay type: cell-based; details: 24 h incubation, mean ± standard error
Description: as §1, §2, §3

[1] = test system: human diploid fibroblasts (WI-38); test: MTT viability assay, normal WI-38; assay type: cell-based; details: normal cell line, 24 h, mean ± standard error
Description: as §1, §2, §3

human fetal lung (HFL-1) = test: MTT viability assay, normal HFL-1; assay type: cell-based; details: HFL1, normal cell line, 24 h, mean ± standard error
Description: as §1, §2, §3

MCF-7/ADR = test: MTT viability assay, resistant MCF-7/ADR; assay type: cell-based; details: for IC50: Homo sapiens, NCI/ADR-RES, MTT, 24 h exposure, mean ± standard error; for activity against MCF-7/ADR cell (in words): with regard to Doxorubicin
Description: as §1, §2, §3

IC50 (SKOV-3; Homo sapiens, SK-OV-3)	IC50 (PC-3; Homo sapiens, PC-3)	melting point	IC50 (HeLa; Homo sapiens, HeLa)	IC50 (MCF-7/ADR)	Structure (SMILES)	times more potency than Doxorubicin, SKOV-3 (SKOV-3)	times more potency than Vinblastine, SKOV-3 (SKOV-3)	times more potent than Doxorubicin, PC-3 (PC-3; ratio of IC50 values, PC-3)	times more potent than Vinblastine, PC-3 (PC-3; ratio of IC50 values, PC-3)	IC50 [1]	IC50 (human fetal lung (HFL-1))	activity against MCF-7/ADR cell (in words) (MCF-7/ADR)	IC50 (SKOV-3)	IC50 (PC-3)	IC50 (HeLa)
35.6 ± 0.4 µM	8.8 ± 0.7 µM	285 to 286 °C	21.9 ± 1.1 µM		N#CC1=C(N)Oc2ccc3ccc(O)cc3c2C1c1ccc(Cl)cc1 (stereo not drawn) [4d, 3-Amino-1-(4-chlorophenyl)-9-hydroxy-1H-benzo[f]chromene-2-carbonitrile]										
4.8 ± 1.1 µM	8.8 ± 1.2 µM	285 to 286 °C	7.9 ± 1.6 µM		N#CC1=C(N)Oc2ccc3ccc(O)cc3c2C1c1ccc(Br)cc1 (stereo not drawn) [4e, 3-Amino-1-(4-bromophenyl)-9-hydroxy-1H-benzo[f]chromene-2-carbonitrile]										
35.2 ± 1.3 µM	37.2 ± 1.3 µM	258 to 259 °C	33.7 ± 1.3 µM		Cc1ccc(C2C(C#N)=C(N)Oc3ccc4ccc(O)cc4c32)cc1 (stereo not drawn) [4f, 3-Amino-1-(4-methylphenyl)-9-hydroxy-1H-benzo[f]chromene-2-carbonitrile]										
0.7 ± 0.8 µM	0.9 ± 0.4 µM	229 to 230 °C	0.9 ± 1.5 µM	30.5 ± 0.7 µM	COc1ccc(C2C(C#N)=C(N)Oc3ccc4ccc(O)cc4c32)cc1 (stereo not drawn) [4g, 3-Amino-1-(4-methoxyphenyl)-9-hydroxy-1H-benzo[f]chromene-2-carbonitrile]	1.6 times	4.6 times	1.4 times	8.3 times	84.5 ± 1.1 µM	77.5 ± 0.1 µM	inactive			
0.6 ± 0.1 µM	0.7 ± 0.4 µM	262 to 263 °C	0.9 ± 0.4 µM	19.2 ± 0.7 µM	N#CC1=C(N)Oc2ccc3ccc(O)cc3c2C1c1ccc([N+](=O)[O-])cc1 (stereo not drawn) [4h, 3-Amino-1-(4-nitrophenyl)-9-hydroxy-1H-benzo[f]chromene-2-carbonitrile]	1.8 times	5.3 times		10.7 times	79.4 ± 0.1 µM	84.9 ± 0.1 µM	inactive			
3.5 ± 0.3 µM	3.2 ± 1 µM	269 to 279 °C	3.3 ± 0.3 µM		N#CC1=C(N)Oc2ccc3ccc(O)cc3c2C1c1ccc(OCc2ccccc2)cc1 (stereo not drawn) [4i, 3-Amino-1-(4-(benzyloxy)phenyl)-9-hydroxy-1H-benzo[f]chromene-2-carbonitrile]										
3.9 ± 0.6 µM	6.6 ± 0.5 µM	260 to 261 °C	2.5 ± 0.2 µM		N#CC1=C(N)Oc2ccc3ccc(O)cc3c2C1c1ccc2c(c1)OCO2 (stereo not drawn) [4j, 3-Amino-1-(benzo[d][1,3]dioxol-5-yl)-9-hydroxy-1H-benzo[f]chromene-2-carbonitrile]										
6.3 ± 0.8 µM	10.6 ± 0.5 µM	296 to 297 °C	76.4 ± 0.7 µM		N#CC1=C(N)Oc2ccc3ccc(O)cc3c2C1c1cccnc1 (stereo not drawn) [4k, 3-Amino-9-hydroxy-1-(pyridin-3-yl)-1H-benzo[f]chromene-2-carbonitrile]										
5.1 ± 0.8 µM	17.7 ± 0.7 µM	294 to 295 °C	11.5 ± 0.9 µM		N#CC1=C(N)Oc2ccc3ccc(O)cc3c2C1c1ccncc1 (stereo not drawn) [4l, 3-Amino-9-hydroxy-1-(pyridin-4-yl)-1H-benzo[f]chromene-2-carbonitrile]										
					CC[C@]1(O)C[C@@H]2CN(CCc3c([nH]c4ccccc34)[C@@](C(=O)OC)(c3cc4c(cc3OC)N(C)[C@H]3[C@@](O)(C(=O)OC)[C@H](OC(C)=O)[C@]5(CC)C=CCN6CC[C@]43[C@@H]65)C2)C1 [Vinblastine, reference compound]								3.2 ± 1.2 µM	7.5 ± 1.3 µM	5.7 ± 1.1 µM
